Experimental data from PubChem BioAssay (NCI).
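Cells were grown in 96-well plates and exposed to each compound for 48 hours at five concentrations; endpoints were interpolated linearly between bracketing concentrations, or set to the highest concentration if not reached. GI50 marks 50% less growth. Definition used: TGI = concentration required for complete inhibition of growth.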

What was measured:
Experiment in all cases: NCI tumour cell line growth inhibition, 48 h
K-562 leukemia = test system: K-562 leukemia
SNB-19 CNS = test system: SNB-19 CNS
HCC-2998 colon = test system: HCC-2998 colon
SK-MEL-28 melanoma = test system: SK-MEL-28 melanoma
OVCAR-3 ovarian = test system: OVCAR-3 ovarian
SK-MEL-2 melanoma = test system: SK-MEL-2 melanoma
UACC-62 melanoma = test system: UACC-62 melanoma
A498 renal = test system: A498 renal
PC-3 prostate = test system: PC-3 prostate
MDA-N = test system: MDA-N
ACHN renal = test system: ACHN renal

Compound	TGI (K-562 leukemia)	TGI (SNB-19 CNS)	TGI (HCC-2998 colon)	TGI (SK-MEL-28 melanoma)	TGI (OVCAR-3 ovarian)	TGI (SK-MEL-2 melanoma)	TGI (UACC-62 melanoma)	TGI (A498 renal)	TGI (PC-3 prostate)	TGI (MDA-N)	TGI (ACHN renal)	GI50 (HCC-2998 colon)	GI50 (ACHN renal)	GI50 (SK-MEL-28 melanoma)	GI50 (PC-3 prostate)	GI50 (OVCAR-3 ovarian)	GI50 (SK-MEL-2 melanoma)	GI50 (UACC-62 melanoma)	GI50 (K-562 leukemia)	GI50 (A498 renal)
O=[N+]([O-])c1ccc(Nc2cccc3c2[nH]c2c(-c4ccccc4)nccc23)c([N+](=O)[O-])c1	> 100 µM	> 100 µM	> 100 µM	> 100 µM	> 100 µM	> 100 µM	> 100 µM	> 100 µM												
Cc1ccc(C(=O)N/N=C(\N=Nc2ccccc2C(=O)O)c2ccc(N(C)C)cc2)cc1	> 100 µM	> 100 µM	> 100 µM	> 100 µM	99.3 µM	> 100 µM			> 100 µM	57.7 µM										
ClC1=C(Cl)C2OC3C=CCC3OC2C(Cl)=C1Cl (configuration not stated)	> 100 µM		88.4 µM	> 100 µM	> 100 µM	48.1 µM		> 100 µM	> 100 µM	> 100 µM	> 100 µM									
CNC(=O)C1OC(n2cnc3c(NCc4cccc(I)c4)nc(Cl)nc32)C(O)C1O (configuration not stated)	> 100 µM	24.9 µM			25.7 µM	27.8 µM	24 µM	33.7 µM	24.1 µM	55.4 µM	24 µM									
O=C(Cn1c(=O)oc2ccc(C(=O)c3cccc(Cl)c3)cc21)c1ccccc1	> 100 µM		78.6 µM	> 100 µM	> 100 µM	> 100 µM	> 100 µM	95.8 µM	> 100 µM		> 100 µM									
N=C(N)c1ccc(-c2ccc(-c3ccc(Cl)cc3Cl)s2)nc1			3.17 µM	3.28 µM	3.35 µM	7.32 µM	3.65 µM		3.67 µM		3.16 µM	1.74 µM	1.77 µM	1.76 µM	1.86 µM	1.83 µM	2.79 µM	1.9 µM		
Cn1c(-c2c(C3=CC(=O)N(c4ccccc4)C3=O)c3ccccc3n2C)cc2ccccc21	> 100 µM	> 100 µM	> 100 µM	> 100 µM	> 100 µM	> 100 µM	> 100 µM		> 100 µM	> 100 µM	> 100 µM									
COc1ccc(C2=NN(c3nsc4ccccc34)C(=O)CC2)cc1	> 100 µM	> 100 µM	> 100 µM	> 100 µM	> 100 µM	> 100 µM	> 100 µM				> 100 µM									
Cc1cc(S(=O)(=O)Nc2n[nH]c(Nc3ccccc3)n2)c(SSc2cc(Cl)c(C)cc2S(=O)(=O)Nc2n[nH]c(Nc3ccccc3)n2)cc1Cl	> 100 µM	> 100 µM		> 100 µM	> 100 µM		> 100 µM		> 100 µM	> 100 µM	> 100 µM									
Nc1c(C(=O)O)nnc2cc(Cl)ccc12	> 100 µM	> 100 µM	> 100 µM		> 100 µM	> 100 µM	> 100 µM	> 100 µM	> 100 µM	> 100 µM	> 100 µM									
CCc1n[nH]c(=O)[nH]1	> 100 µM	> 100 µM	> 100 µM		> 100 µM	> 100 µM	> 100 µM		> 100 µM	> 100 µM	> 100 µM									
CC1=C(C(=O)NCc2ccccc2)C(c2ccco2)C(C(=O)NCc2ccccc2)=C(C)N1	> 100 µM	> 100 µM	> 100 µM	> 100 µM	> 100 µM	92.6 µM	50.6 µM	> 100 µM			> 100 µM									
CCOC(=O)CN1C(=O)C(=O)N(c2ccc(OC)c3ccccc23)C1=O	> 100 µM	> 100 µM	> 100 µM	> 100 µM	> 100 µM	> 100 µM	> 100 µM		> 100 µM	> 100 µM	> 100 µM									
COc1cc2nc(-c3cccs3)nc(N3C(c4cc(OC)c(OC)c(OC)c4)=NNC(=O)c4ccccc43)c2cc1OC	> 100 µM	46.3 µM		81.6 µM	50.2 µM	> 100 µM	35.8 µM	> 100 µM	> 100 µM		> 100 µM									
Cc1oc2nc(N(C)C)n3cnnc3c2c1C	> 100 µM	> 100 µM	> 100 µM	> 100 µM	> 100 µM	> 100 µM	> 100 µM	> 100 µM	> 100 µM		> 100 µM									
O=S(=O)(O)c1cc(N=[N+]([O-])c2ccc(N=Nc3ccccc3)cc2S(=O)(=O)O)ccc1/C=C/c1ccc(N=[N+]([O-])c2ccc(N=Nc3ccccc3)cc2S(=O)(=O)O)cc1S(=O)(=O)O	> 100 µM	> 100 µM	> 100 µM	> 100 µM	> 100 µM	> 100 µM	> 100 µM	> 100 µM												
COc1ccc(S(=O)(=O)Nc2cc(Sc3cccc4cccnc34)c(O)c3ccccc23)cc1	11.2 µM		21.3 µM	13.2 µM	3.81 µM	6.26 µM	6.83 µM	16.5 µM	10.6 µM		10 µM	6.7 µM	0.731 µM	2.55 µM	0.512 µM	0.695 µM	1.37 µM	2.04 µM	0.926 µM	2.27 µM
CCOC(=O)C1CCCN1C(=O)c1ccccc1Cl (configuration not stated)	> 100 µM	> 100 µM	> 100 µM	> 100 µM	> 100 µM		88.3 µM	> 100 µM		> 100 µM	> 100 µM									
CC(C)N1[C@@H]2CCCC[C@H]2N(C(C)C)[P+]1=O	> 100 µM		> 100 µM		> 100 µM		> 100 µM	> 100 µM		> 100 µM	> 100 µM									
Cc1cc(O)c(C(C)C)cc1C(=S)Nc1ccc(Cl)cc1	23.4 µM		33 µM	28.6 µM	27.9 µM	27.8 µM	22.3 µM	29.7 µM	23 µM	23.7 µM	25.7 µM									
CC(C)(CO)CNc1cc(Cl)nc(N)n1	> 100 µM		> 100 µM	> 100 µM	> 100 µM	> 100 µM	> 100 µM	> 100 µM	> 100 µM	> 100 µM	> 100 µM									
